The results in this text go back to patent US11827582B2, “Substituted amines as disrupters of ABETA42 oligomer formation” (ACELOT, INC., priority 2017, dated 2023).

Data set [1] can be described thus: Caco-2 A-B and B-A permeability test. It is filed as in vitro ADME. The following applies: human. The procedure: Subsequently, Caco-2 A-B and B-A permeability tests (pH 7.4) were performed on the […]-107 molecules in order to assess their human intestinal permeability and drug efflux. This assay measures the […] rate of transport of a compound across the Caco-2 cell line that is derived from a human colon carcinoma. The cells have characteristics that resemble intestinal epithelial cells such as the formation of a polarized monolayer, well-defined brush border on the apical surface and intercellular junctions.
Background: Caco-2 monolayers are a common model of the intestinal barrier.

Data set [2] relates to Aβ oligomer induced changes in membrane trafficking in 21 DIV primary rodent neuronal cultures. The experiment in a line: Membrane trafficking assay (MTT) in primary neuronal cultures treated with oligomeric Aβ. It is filed as cell-based. Particulars: read-out: MTT ASSAY EC50. On the procedure:
Seven drug candidates (A0101-A0107) (FIG. 2) were tested in a primary cell biological screening assay capable of measuring Aβ oligomer induced changes in membrane trafficking in 21 DIV primary rodent neuronal cultures (see Izzo et al., PLoS ONE 9(11):e111899, 2014). Briefly, cultures were treated with either oligomeric Aβ or oligomeric Aβ plus a candidate compound for 24 hours. Non-Aβ treated cells served as a negative control. Next, a non-membrane permeable dye (MTT) was added to the dishes for 1 hour, during which time the dye can be internalized by endocytosis. At the end of the hour, the dye containing media was removed, the dishes were rinsed extensively with isotonic buffer, and finally, the washed cells were extracted with a Triton X-100 buffer to solubilize membranes and release the dye, which is quantitated.

In data set [3] the target is Human Ether-á-go-go-Related-Gene channel (hERG) (Homo sapiens, UniProt Q12809). The experiment in a line: hERG cellular patch-clamp assay (cardiac toxicity).
Source text: Contract laboratories provided screening of hERG ion channel cell lines as an indicator of cardiac safety. […] Cellular “patch-clamp” assays provide the data required by ICH guidelines.
The target of data set [4] is wild type Aβ42 (Homo sapiens, UniProt P05067). Nature of the data set: IMS-MS assay for Aβ42 oligomer formation (arrival time distributions). The following applies: for Aβ42 wt dodecamer formation (overall conclusion): 10 μM in 10 mM ammonium acetate. On the procedure: A physiologically relevant solution of Aβ42 and a drug candidate was incubated for varying periods of time and then loaded into a special spray capillary and the solution nano-electrosprayed, captured by an ion funnel, transported, dehydrated and continuously fed into a quadrapole mass analyser, and detected. This process yielded a mass spectrum. In order to obtain either structural or oligomeric information, the ions were next stored at the end of the funnel and then pulse injected at low energy into a drift cell filled with helium gas and subjected to a low electric field to transport the ions through the cell. The quadrapole is set to pass a particular mass to charge ratio (m=z), and an arrival time distribution (ATD) of the ions at this m=z is obtained at the detector (see, e.g., Bernstein et al., Journal of the American Chemical Society, 127(7):2075-2084, 2005). All molecules were at a concentration of 10 μM in 10 mM ammonium acetate.
By collecting Arrival Time Distributions (ATDs) of each of these charge states, ions of the same mass-to-charge (m/z) ratio were separated by their size and shape.
Using kinetic theory and parameters of the experiment, arrival times are related to an ion's mobility in the drift cell, which is inversely proportional to the ion's collision cross section. Oligomer formation is shown for dimer (n=2) up to dodecamer (n=12) for the z/n=−5/2 charge state.
For example, the peak in z/n=−3 ATD with a collision cross section of 698 Å^2 corresponds to a less compact solution-phase monomer structure. The peak of 642 Å^2 corresponds to a more compact gas phase structure.

The mark [5] stands for this setting: Caco-2, apical to basolateral, pH 7.4, read-out: A-B perm.
Setting [6] is: Caco-2, basolateral to apical, pH 7.4, read-out: B-A perm.

Like-named read-outs stand apart in the source and are kept apart here.

Chain of Human Ether-á-go-go-Related-Gene channel (hERG) (Q12809 whole entry): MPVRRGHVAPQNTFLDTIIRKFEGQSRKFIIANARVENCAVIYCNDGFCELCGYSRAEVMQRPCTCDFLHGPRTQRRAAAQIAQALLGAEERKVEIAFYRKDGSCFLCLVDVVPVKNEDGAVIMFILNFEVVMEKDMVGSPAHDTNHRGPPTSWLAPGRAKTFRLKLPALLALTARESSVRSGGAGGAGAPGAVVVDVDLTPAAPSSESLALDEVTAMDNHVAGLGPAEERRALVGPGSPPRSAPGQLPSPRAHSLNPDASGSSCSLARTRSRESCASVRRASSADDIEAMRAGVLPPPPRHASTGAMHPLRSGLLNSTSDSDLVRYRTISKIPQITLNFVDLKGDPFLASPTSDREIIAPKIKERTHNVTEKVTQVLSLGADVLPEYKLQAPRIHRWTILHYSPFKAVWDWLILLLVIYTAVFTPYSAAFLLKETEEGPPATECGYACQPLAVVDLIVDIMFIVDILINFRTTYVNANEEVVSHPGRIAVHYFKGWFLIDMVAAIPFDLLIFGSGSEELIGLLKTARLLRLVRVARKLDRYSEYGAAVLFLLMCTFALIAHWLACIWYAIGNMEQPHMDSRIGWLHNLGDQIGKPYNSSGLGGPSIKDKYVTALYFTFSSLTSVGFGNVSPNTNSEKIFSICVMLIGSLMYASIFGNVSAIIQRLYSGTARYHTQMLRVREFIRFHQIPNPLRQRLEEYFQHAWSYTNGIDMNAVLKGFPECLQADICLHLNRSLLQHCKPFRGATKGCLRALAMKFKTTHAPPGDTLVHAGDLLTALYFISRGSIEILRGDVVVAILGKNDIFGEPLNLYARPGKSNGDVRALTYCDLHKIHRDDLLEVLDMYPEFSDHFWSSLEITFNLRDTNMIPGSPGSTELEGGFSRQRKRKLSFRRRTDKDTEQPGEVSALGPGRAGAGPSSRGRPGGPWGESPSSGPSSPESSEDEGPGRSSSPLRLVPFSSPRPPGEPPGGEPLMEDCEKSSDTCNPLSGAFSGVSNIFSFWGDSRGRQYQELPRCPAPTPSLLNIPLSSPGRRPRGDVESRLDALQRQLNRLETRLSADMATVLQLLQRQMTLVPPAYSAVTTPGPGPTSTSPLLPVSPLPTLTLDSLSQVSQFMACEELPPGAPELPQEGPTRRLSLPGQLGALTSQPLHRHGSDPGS
Chain of wild type Aβ42 (P05067 672-713 limits assumed): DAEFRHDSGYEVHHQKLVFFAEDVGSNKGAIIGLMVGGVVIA

Consider `CC(C)NCC(O)COc1cccc2ccccc12` (centres unmarked) [propranolol, reference compound], for which the Papp A→B in data set [1] (setting [5]) worked out at 60.6 ×10⁻⁶ cm/s. Moreover, in data set [1] (setting [6]), the Papp B→A stood at 24.2 ×10⁻⁶ cm/s.
As to `COc1cc2c(c(OC)c1OC)-c1ccc(OC)c(=O)cc1[C@@H](NC(C)=O)CC2` [colchicine, reference compound], the Papp A→B in data set [1] (setting [5]) is 0.1 ×10⁻⁶ cm/s. In addition, in data set [1] (setting [6]), the Papp B→A was determined as 13.9 ×10⁻⁶ cm/s.
Consider `CNC(=C[N+](=O)[O-])NCCSCc1ccc(CN(C)C)o1` [ranitidine, reference compound], for which, in data set [1] (Caco-2, pH 7.4), the Papp A→B is 0.7 ×10⁻⁶ cm/s and the Papp B→A is 3.5 ×10⁻⁶ cm/s.
A word on the EC50: it is the concentration that produces a half-maximal response. As usually defined, the IC50 is the concentration that inhibits the measured activity by half. A higher IC50 goes with weaker potency. For the compound `N#Cc1ccc(CNCc2cccc(CN3CCCC3)c2)cc1` [AC0107, 4-[({[3-(pyrrolidin-1-ylmethyl)phenyl]methyl}amino)methyl]benzonitrile], the EC50 in data set [2] came out at 450 nM. In data set [3], this compound yielded an IC50 greater than 10 µM. In addition, the “relative amounts of earlier arriving structures in z/n=−4 ATD” value in data set [4] (1:10 Aβ42 wt to compound, day 2) is reported as “reduces”. In data set [4] (1:10 Aβ42 wt to compound, day one), the “wild type Aβ42 dodecamer formation” value is reported as “inhibited”. Moreover, in data set [4] (IMS-MS), the Aβ42 hexamer growth result is listed as “slowing hexamer growth” and the “Aβ42 wt dodecamer formation (overall conclusion)” value was “inhibitor of Aβ42 wt dodecamer formation”. Besides, in data set [4] (after 29 hours), the “dodecamer formation in z/n=−5/2 ATD” value is “still inhibited”. In addition, the “earlier arriving structures in z/n=−3 ATD” value in data set [4] (between 26 and 30 hours incubation time) was “disappear”. Moreover, the Papp A→B in data set [1] (setting [5]) is 18.4 ×10⁻⁶ cm/s. The Papp B→A in data set [1] (setting [6]) came to 6.5 ×10⁻⁶ cm/s.
Take `CC(=O)Nc1ccc(CNCCc2cccc(Cl)c2)cc1` [AC0101, N-[4-({[2-(3-chlorophenyl)ethyl]amino}methyl)phenyl]acetamide]: in data set [2], the EC50 amounted to 3900 nM. This compound came in with an IC50 in data set [3] of 8 µM. For the same compound, in data set [3] (summary of Table 2, 4th column), the “hERG inhibition (in words)” value is listed as “moderate potency”. Further, the Papp A→B in data set [1] (setting [5]) was 101 ×10⁻⁶ cm/s. The Papp B→A in data set [1] (setting [6]) came out at 41.6 ×10⁻⁶ cm/s.
Regarding `N#Cc1cccc(CNCc2ccc(CN3CCOCC3)cc2)c1` [AC0104, 3-[({[4-(morpholin-4 ylmethyl)phenyl]methyl}amino)methyl]benzonitrile], the EC50 in data set [2] worked out at 700 nM. Also, the IC50 in data set [3] is greater than 10 µM. For the same compound, the Papp A→B in data set [1] (setting [5]) was 59.4 ×10⁻⁶ cm/s. Also, the Papp B→A in data set [1] (setting [6]) is 13.9 ×10⁻⁶ cm/s.
On to `CN(C)Cc1ccc(CNCc2ccc3c(c2)OCCO3)cc1` [AC0102, (2,3-dihydro-1,4-benzodioxin-6-ylmethyl)({4[(dimethylamino)methyl]-phenyl}methyl)amine], for which the EC50 in data set [2] was 3500 nM. The IC50 in data set [3] was greater than 10 µM. Moreover, the Papp A→B in data set [1] (setting [5]) worked out at 30 ×10⁻⁶ cm/s. For the same compound, the Papp B→A in data set [1] (setting [6]) was determined as 4.5 ×10⁻⁶ cm/s.
For the compound `CN(C)C(=O)C(c1ccccc1)N1CCN(c2ccc(O)cc2)CC1` (centres unmarked) [AC0103, 2-[4-(4-hydroxyphenyl)piperazin-1-yl]-N,N-dimethyl-2 phenylacetamide], in data set [2], the EC50 turned out to be 1300 nM. The compound further came in with an IC50 in data set [3] greater than 10 µM. The Papp A→B in data set [1] (setting [5]) turned out to be 61.6 ×10⁻⁶ cm/s. For the same compound, the Papp B→A in data set [1] (setting [6]) was 39.7 ×10⁻⁶ cm/s.
As to `C[C@@H](NCCCc1cccc(C(F)(F)F)c1)c1cccc2ccccc12` [Cinacalcet, reference compound], in data set [4] (IMS-MS), the “Aβ42 wt dodecamer formation (overall conclusion)” value is “did not inhibit”.
With `Cc1cc(CN2CC=C(c3ccc(O)cc3)CC2)no1` [AC0106, 4-{1-[(5-methyl-1,2-oxazol-3-yl)methyl]-1,2,3,6tetrahydropyridin-4-yl}phenol], the EC50 in data set [2] came to 1000 nM. Also, the IC50 in data set [3] is greater than 10 µM. Besides, in data set [1] (setting [5]), the Papp A→B worked out at 74.4 ×10⁻⁶ cm/s. Moreover, the Papp B→A in data set [1] (setting [6]) is 42.3 ×10⁻⁶ cm/s.
